Results taken from ChEMBL document CHEMBL3046260, “Synthesis of benzo[b][1,4]oxazin-3(4H)-ones via smiles rearrangement for antimicrobial activity” (2011).
Values after ≈ are worked out from the molar mass of the structure shown. Active and inactive are the calls of the source. The calls are words filed in the database; no cut-off is given here.

What was measured:
Candida albicans [1] = assay: Microbiostatic activity against Candida albicans ATCC 76615; format: functional, organism-based
Staphylococcus aureus [2] = assay: Antimicrobial activity against Staphylococcus aureus ATCC 25923 after 24 hr by two-fold serial dilution method; format: functional; conditions: ATCC 25923, 24 h
Pseudomonas aeruginosa [3] = assay: Antimicrobial activity against Pseudomonas aeruginosa ATCC 27853 after 24 hr by two-fold serial dilution method; format: functional; conditions: ATCC 27853, 24 h
Escherichia coli [4] = assay: Antimicrobial activity against Escherichia coli ATCC 25922 after 24 hr by two-fold serial dilution method; format: functional; conditions: ATCC 25922, 24 h
Pseudomonas aeruginosa [5] = assay: Microbiostatic activity against Pseudomonas aeruginosa ATCC 27853 after 24 hr
Proteus vulgaris [6] = assay: Microbiostatic activity against Proteus vulgaris ATCC 6896 after 24 hr
Aspergillus flavus [7] = assay: Antimicrobial activity against Aspergillus flavus ATCC 10124 after 48 hr by two-foldserial dilution method; format: functional; conditions: ATCC 10124, 48 h
Staphylococcus aureus [8] = assay: Microbiostatic activity against Staphylococcus aureus ATCC 25923 after 24 hr
Candida albicans [9] = assay: Antimicrobial activity against Candida albicans ATCC 76615 after 48 hr by two-fold serial dilution method; format: functional; conditions: ATCC 76615, 48 h
Aspergillus flavus [10] = assay: Microbiostatic activity against Aspergillus flavus ATCC 10124; format: functional, organism-based
Bacillus spizizenii [11] = assay: Microbiostatic activity against Bacillus subtilis subsp. spizizenii ATCC 6633 after 24 hr
Bacillus spizizenii [12] = assay: Antimicrobial activity against Bacillus subtilis subsp. spizizenii ATCC 6633 after 24 hr by two-fold serial dilution method; format: functional; conditions: ATCC 6633, 24 h
Escherichia coli [13] = assay: Microbiostatic activity against Escherichia coli ATCC 25922 after […]; format: functional, organism-based
Proteus vulgaris [14] = assay: Antimicrobial activity against Proteus vulgaris ATCC 6896 after 24 hr by two-fold serial dilution method; format: functional; conditions: ATCC 6896, 24 h

Structure (SMILES) | Activity (Candida albicans [1]) | MIC (Staphylococcus aureus [2]) | MIC (Pseudomonas aeruginosa [3]) | MIC (Escherichia coli [4]) | Activity (Pseudomonas aeruginosa [5]) | Activity (Proteus vulgaris [6]) | MIC (Aspergillus flavus [7]) | Activity (Staphylococcus aureus [8]) | MIC (Candida albicans [9]) | Activity (Aspergillus flavus [10]) | Activity (Bacillus spizizenii [11]) | MIC (Bacillus spizizenii [12]) | Activity (Escherichia coli [13]) | MIC (Proteus vulgaris [14])
O=C1COc2cc(Br)ccc2N1Cc1ccccc1 | Active | 32 µg/mL (≈ 101 µM) | 16 µg/mL (≈ 50.3 µM) | 32 µg/mL (≈ 101 µM) | Active | Active | 128 µg/mL (≈ 402 µM) | Active | 128 µg/mL (≈ 402 µM) | Active | Active | 32 µg/mL (≈ 101 µM) | Active | 32 µg/mL (≈ 101 µM)
CCCCCCN1C(=O)COc2cc(Cl)ccc21 | Active | 32 µg/mL (≈ 120 µM) | 32 µg/mL (≈ 120 µM) | 32 µg/mL (≈ 120 µM) | Active | Active | – | Active | 512 µg/mL (≈ 1910 µM) | Active | Active | 32 µg/mL (≈ 120 µM) | Active | 16 µg/mL (≈ 59.8 µM)
CCCCCCN1C(=O)COc2cc(Br)ccc21 | Active | 32 µg/mL (≈ 102 µM) | 32 µg/mL (≈ 102 µM) | 32 µg/mL (≈ 102 µM) | Active | Active | – | Active | 128 µg/mL (≈ 410 µM) | Active | Active | 32 µg/mL (≈ 102 µM) | Active | 16 µg/mL (≈ 51.2 µM)
O=C1COc2cc(Cl)ccc2N1CC1CCCO1 (stereo not drawn) | Active | 32 µg/mL (≈ 120 µM) | 64 µg/mL (≈ 239 µM) | 32 µg/mL (≈ 120 µM) | Active | Active | 256 µg/mL (≈ 956 µM) | Active | 128 µg/mL (≈ 478 µM) | Active | Active | 32 µg/mL (≈ 120 µM) | Active | 32 µg/mL (≈ 120 µM)
O=C1COc2cc(F)ccc2N1Cc1ccccc1 | Active | 64 µg/mL (≈ 249 µM) | 16 µg/mL (≈ 62.2 µM) | 16 µg/mL (≈ 62.2 µM) | Active | Active | 128 µg/mL (≈ 498 µM) | Active | 256 µg/mL (≈ 995 µM) | Active | Active | 32 µg/mL (≈ 124 µM) | Active | 32 µg/mL (≈ 124 µM)
O=C1COc2cc(Br)ccc2N1CC1CCCO1 (stereo not drawn) | Active | 32 µg/mL (≈ 103 µM) | 64 µg/mL (≈ 205 µM) | 32 µg/mL (≈ 103 µM) | Active | Active | – | Active | 128 µg/mL (≈ 410 µM) | Active | Active | 32 µg/mL (≈ 103 µM) | Active | 32 µg/mL (≈ 103 µM)
CC(C)(O/N=C(\C(=O)N[C@@H]1C(=O)N2C(C(=O)[O-])=C(C[n+]3ccccc3)CS[C@H]12)c1csc(N)n1)C(=O)O [CEFTAZIDIME] | Active | 4 µg/mL (≈ 7.32 µM) | 128 µg/mL (≈ 234 µM) | 4 µg/mL (≈ 7.32 µM) | Active | Active | – | Active | – | Active | Active | 2 µg/mL (≈ 3.66 µM) | Active | 4 µg/mL (≈ 7.32 µM)
Clc1ccccc1C(c1ccccc1)(c1ccccc1)n1ccnc1 [CLOTRIMAZOLE] | Active | 512 µg/mL (≈ 1480 µM) | 512 µg/mL (≈ 1480 µM) | 512 µg/mL (≈ 1480 µM) | Active | Active | 2 µg/mL (≈ 5.8 µM) | Active | 2 µg/mL (≈ 5.8 µM) | Active | Active | 512 µg/mL (≈ 1480 µM) | Active | 512 µg/mL (≈ 1480 µM)
O=C1COc2c(Cl)cccc2N1C1CCCCC1 | Active | 64 µg/mL (≈ 241 µM) | 16 µg/mL (≈ 60.2 µM) | 32 µg/mL (≈ 120 µM) | Active | Active | 256 µg/mL (≈ 963 µM) | Active | 128 µg/mL (≈ 482 µM) | Active | Active | 32 µg/mL (≈ 120 µM) | Active | 32 µg/mL (≈ 120 µM)
O=C1COc2ccc(Cl)cc2N1Cc1ccccc1 | Active | 64 µg/mL (≈ 234 µM) | 128 µg/mL (≈ 468 µM) | 128 µg/mL (≈ 468 µM) | Active | Active | 32 µg/mL (≈ 117 µM) | Active | 64 µg/mL (≈ 234 µM) | Active | Active | 32 µg/mL (≈ 117 µM) | Active | 32 µg/mL (≈ 117 µM)
O=C1COc2cc(Br)ccc2N1C1CCCCC1 | Active | 32 µg/mL (≈ 103 µM) | 16 µg/mL (≈ 51.6 µM) | 16 µg/mL (≈ 51.6 µM) | Active | Active | – | Active | 256 µg/mL (≈ 825 µM) | Active | Active | 32 µg/mL (≈ 103 µM) | Active | 32 µg/mL (≈ 103 µM)
O=C1COc2cc(F)ccc2N1CC1CCCO1 (stereo not drawn) | Active | 32 µg/mL (≈ 127 µM) | 128 µg/mL (≈ 509 µM) | 32 µg/mL (≈ 127 µM) | Active | Active | – | Active | 256 µg/mL (≈ 1020 µM) | Active | Active | 32 µg/mL (≈ 127 µM) | Active | 16 µg/mL (≈ 63.7 µM)
CC1(C)S[C@@H]2[C@H](NC(=O)[C@H](N)c3ccccc3)C(=O)N2[C@H]1C(=O)O [AMPICILLIN] | Active | 2 µg/mL (≈ 5.72 µM) | 128 µg/mL (≈ 366 µM) | 16 µg/mL (≈ 45.8 µM) | Active | Active | – | Active | – | Active | Active | 1 µg/mL (≈ 2.86 µM) | Active | 16 µg/mL (≈ 45.8 µM)
O=C1COc2cc(Cl)ccc2N1CCc1ccccc1 | Active | 64 µg/mL (≈ 222 µM) | 16 µg/mL (≈ 55.6 µM) | 32 µg/mL (≈ 111 µM) | Active | Active | – | Active | 128 µg/mL (≈ 445 µM) | Active | Active | 64 µg/mL (≈ 222 µM) | Active | 16 µg/mL (≈ 55.6 µM)
CN[C@@H]1[C@H](O[C@H]2[C@H](O[C@H]3[C@H](O)[C@@H](O)[C@H](N=C(N)N)[C@@H](O)[C@@H]3N=C(N)N)O[C@@H](C)[C@]2(O)C=O)O[C@@H](CO)[C@H](O)[C@H]1O [STREPTOMYCIN] | Active | 2 µg/mL (≈ 3.44 µM) | 2 µg/mL (≈ 3.44 µM) | 4 µg/mL (≈ 6.88 µM) | Active | Active | – | Active | – | Active | Active | 32 µg/mL (≈ 55 µM) | Active | 4 µg/mL (≈ 6.88 µM)
